# Reference: patent publication US20160038459A1, “COMPOSITIONS AND METHODS FOR THE TREATMENT OF NATAL AND PRE-NATAL CONDITIONS WITH ALPHA-TOCOPHEROL” (Northwestern University, priority 2014, published 2016)
# Assays:
# [1] = system: OVA-challenged pups from allergic mothers; test: OVA-induced allergic inflammation in pups from allergic mothers given D-α-tocopherol-supplemented diet
# Description: C57BL/6 female mice were maintained on chow diet. The mice were sensitized by intraperitoneal injection (200 μl) of ovalbumin (OVA) grade V (5 μg)/potassium aluminum sulfate (alum, 1 mg) or saline/alum (1 mg) on days 0 and 7 (26, 28, 46). The mice were exposed to nebulized saline or 3% (wt/vol) OVA in saline for 15 min on three consecutive days at 8, 12, and 16 wk of age. At 18 wk old, the female mice were challenged one time with 3% OVA (26, 28, 46) and then fed basal diet or diet supplemented with D-α-tocopherol (500 mg α-tocopherol/kg diet) (Table 1) (42, 52, 71). […] Ten days after starting the tocopherol-supplemented diet, females were mated with normal males. Three-day-old pups were sub-optimally sensitized by treating with only one 50-μl ip injection (rather than two injections) of 5 μg OVA/1 mg alum (26, 28, 33). At 10, 11, and 12 days old, the pups were challenged for 15 min with 3% OVA (FIG. 1A). At 13 days old, the pups were weighed and killed, and tissues were collected. Serum was collected for analysis of IgE, liver was for tocopherol analysis, lung lavage was for leukocytes and cytokines, and lung tissue was for histology, flow cytometry, and qPCR of mediators of allergic inflammation. Liver was extracted and examined for tocopherols by high-pressure liquid chromatography with electrochemical detection as we previously described (7, 50). Bronchoalveolar lavage (BAL) cells were stained and counted as previously described (3). […] Lung tissue sections were fixed in cold methanol for 15 min, rehydrated for 60 min with PBS, and stained with eosin and methyl green as we previously described (6).
# In these studies, allergic responses were induced in 6-wk-old adult female mice by sensitization with OVA/alum at weeks 0 and 1 and challenge with OVA or saline three times a week during weeks 4, 8, 12, and 18 as in the timeline in FIG. 1A. Next, the females were supplemented with D-α-tocopherol at the time of mating (FIG. 1A). The mothers were given a standard basal diet (45 mg D-α-tocopherol/kg diet) or supplemented with 150, 250, or 500 mg D-α-tocopherol/kg diets (Table 1). […] All pups from the mothers were challenged with a suboptimal regimen of OVA as previously described (46); the pups received one, instead of two, sensitizations with OVA-alum and then received three challenges with aerosolized OVA (FIG. 1A).
# [2] = system: lung tissue cytokines and eotaxins; test: Pup lung cytokines, chemokines, IDO and MHCII by qPCR; BAL CCL24 by ELISA; assay type: in vivo, C57BL/6 mice
# Description: Total RNA was isolated from 50 to 100 mg lung tissue using the QIAGEN RNeasy Fibrous Tissue Mini Kit. cDNA was prepared using a SuperScript II RNase H-Reverse Transcriptase kit (Invitrogen) and analyzed by PCR on an ABI 7300 Thermal Cycler (Applied Biosystems). Taqman probes and Taqman Universal Master Mix were used as directed (Applied Biosystems). CCL24 in the BAL also was examined by ELISA (Raybiotech).
# [3] = system: bone marrow-derived DCs co-cultured with CD4+ T cells; test: Bone marrow-derived DCs co-cultured 48 hours with purified CD4+ T cells; assay type: cell-based; conditions: 48 hours co-culture (not shown)
# Description: FIGS. 17A-C show α-T and γ-T have opposing effects in regulation of DC development and function in vitro. FIGS. 17A and B show results from bone marrow from postnatal day 10 neonate (with basal diet) that was cultured with GM-CSF and with 80 μM αT (FIG. 17B) or 2 μM γT (FIG. 17A) for 8 days and analyzed for DC subsets by immunolabeling/flow cytometry. *, p<0.05 compared to DMSO group. **, p<0.05 compared to indicated group. […] Expression by qPCR. There was no effect on cell viability (not shown). n=3. **, p<0.05 compared to all other groups. *, p<0.05 compared to DMSO group.
# [4] = Liver tocopherol measurement by HPLC with electrochemical detection; assay type: in vivo, C57BL/6 mice
# Description: Diets or livers were weighed and homogenized in absolute ethanol with 5% ascorbic acid on ice. The internal standard tocol is added to each […] to determine recovery. The homogenate or plasma was extracted with an equal volume of hexane with 0.37 wt/100 wt butylated hydroxytoluene to prevent oxidation and increase recovery of tocopherol. The samples were vortexed and then centrifuged for 10 min at 9,000 g at 4° C. The hexane layer was dried under nitrogen and stored at −20° C. The samples were reconstituted in methanol, and then tocopherols were separated using a reverse-phase C18 HPLC column (Hewlett Packard) and HPLC (Waters) with 99% methanol-1% water as a mobile phase with detection with an electrochemical detector (potential 0.7 V) (Waters).
# [5] = system: pup lung dendritic cell subsets; test: Flow cytometry analysis of pup lung dendritic cell subsets; assay type: in vivo, C57BL/6 mice
# Description: (§1) Following BAL of pups, lungs were removed for analysis of dendritic cell types by flow cytometry. In the fetus, hematopoiesis occurs in the fetal livers. Gestational day 18 fetal livers were collected for analysis of fetal liver DCs. Briefly, tissues were minced and suspended in 5 ml of RPMI solution containing 1 mg/ml collagenase D (Roche) and 0.2 mg/ml DNase I (Roche) at 37° C. with agitation. After 1 h, samples were filtered through sterile 70-μm mesh tissue, centrifuged, and resuspended in 5% FBS-RPMI solution. Red blood cells were lysed in 1×BD PharmLyse Lysing Buffer (BD Biosciences), and the cells were washed two times in PBS. All centrifugation steps were carried out at 300 g for 5 min. Three million cells were used per sample for immunolabeling.
# The cells were stained for live/dead exclusion in 500 μl PBS containing 0.25 μl of Aqua fluorescent reactive dye (Molecular Probes, Invitrogen) for 20 min at room temperature in the dark. Next, FC receptors were blocked by incubating the cells in 50 μl flow cytometry staining buffer (Biolegend) with 0.75 μl purified rat anti-mouse CD16/CD32 Mouse BD FC Block (no. 553142; BD Pharmingen) for 10 min at 4° C.
# To prepare the antibodies for immunolabeling, for each sample equivalent, an antibody stock was prepared by adding the following antibodies to 50 μl of flow cytometry buffer: 1) Live/Dead Aqua fluorescent dye (no. L34957; Molecular Probes, Invitrogen), 0.25 μl/sample; 2) CD45, rat anti-mouse FITC-conjugated, 0.5 mg/ml, clone 30-F11 (no. 103107; Biolegend), 0.31 μl/sample; 3) CD11b, rat anti-mouse PE-CF594-conjugated, 0.2 mg/ml, clone M1/70 (no. 562317; BD Biosciences), 0.05 μl/sample; 4) Ly-6C, rat anti-mouse APC/Cy7-conjugated, 0.2 mg/ml, clone HK1.4 (no. 128025; Biolegend), 0.4 μl/sample; 5) CD11c, Armenian hamster anti-mouse PE/Cy7-conjugated, 0.2 mg/ml, clone N418 (no. 117317; Biolegend), 0.2 μl/sample; 6) I-A/I-E (MHCII), rat anti-mouse PerCP/Cy5.5-conjugated, 0.2 mg/ml, clone M5/114.15.2 (no. 107625; Biolegend), 0.1 μl/sample; 7) CD103, Armenian hamster anti-mouse Brilliant Violet 421-conjugated, clone 2E7 (no. 121421; Biolegend), 0.2 μl/sample; 8) CD317 (PDCA-1), rat anti-mouse APC-conjugated, 0.2 mg/ml, clone 927 (no. […]
# (§2) The cells were examined with a BD LSRII flow cytometer (BD Biosciences). […] Fluorescence Minus One staining controls were used as negative controls to identify gates for populations of interest. The following subpopulations of DCs were analyzed: 1) resident conventional DCs: CD11b+Ly6C−CD11chighMHCIIhigh; 2) CD11b+ alveolar DCs: CD11b+Ly6C−CD11c+MHCII−; 3) inflammatory DCs: CD11b+Ly6C+CD11c+MHCII+; 4) plasmacytoid DCs (pDCs): CD11b−Ly6C−CD11clowPDCA-1+MHCII−; 5) resident CD103+DCs: CD11b−Ly6C−CD11c+CD103+MHCII−; and 6) CD11b−alveolar DCs: CD11b−Ly6C−CD11c+MHCII+/−. […]
# [6] = system: bone marrow-derived CD11c+CD11b+ DCs; test: Bone marrow-derived dendritic cell culture with GM-CSF in vitro; assay type: cell-based, mice; conditions: 80 μM vs DMSO
# Description: For bone marrow-derived postnatal day 10 pup dendritic cell cultures, a single cell suspension of bone marrow from 10-day-old mice was placed in RPMI 1640, glutamine, HEPES, gentamycin sulfate, penicillin/streptomycin, and 10% heat-inactivated FCS. The bone marrow cells were treated with the DMSO solvent control (0.01%) or D-α-tocopherol (80 μM) as we previously described for in vitro treatment with D-α-tocopherol (7). The cells were stimulated with 5 ng granulocyte macrophage colony-stimulating factor (GM-CSF) per milliliter. The culture medium with tocopherol and GM-CSF was replaced on days 2, 4, and 7. […]
# [7] = system: fetal liver dendritic cell subsets; test: Flow cytometry analysis of gestational day 18 fetal liver dendritic cells; assay type: in vivo, C57BL/6 mice
# Description: as §1, with “immunolabeling. […]” for “immunolabeling.”
# as §2
# [8] = Tissue γ-tocopherol after maternal γ-tocopherol-supplemented diet; assay type: in vivo, C57BL/6 mice
# Description: (§3) C57BL/6 female mice were sensitized with OVA/alum and challenged with OVA (150 μg) as in the timeline below. Then, the cages were supplied with basal diet (45 mg γ-tocopherol/kg diet) or γ-tocopherol supplemented diets (250 mg γ-tocopherol/kg diet) and males were introduced for breeding. The pups were administered a suboptimal dose of OVA/alum (i.e., one i.p. with OVA/alum and 3 challenges for 10 min with 3% OVA as previously described (Am J Respir Cell Mol Biol 2011. 44: 285 and Am J PhysiolLung Cell MolPhysiol. 2014, 15; 307:L482-96; both of which are herein incorporated by reference in their entireties).
# [9] = system: OVA-challenged pups from allergic mothers; test: Maternal γ-tocopherol supplementation of allergic mothers, suboptimal OVA challenge of pups; assay type: in vivo, C57BL/6 mice; conditions: for numbers of IRF4+CD11b+CD11c+ dendritic cells in pup lung: OVA-challenged pups from allergic mothers; for inflammatory mediators in OVA-treated pup lungs: protein array and ELISA of minced lung culture supernatants
# Description: as §3
# [10] = maternal supplementation, discussion statement
# [11] = maternal supplementation during pregnancy/lactation, first litter, PND13, qPCR
# [12] = second litter, 500 mg/kg maternal diet, OVA-challenged pups from allergic mothers
# [13] = PND13 OVA-challenged pups, maternal supplementation
# [14] = bone marrow from 10-day-old neonates, 8 days
# [15] = 250 mg γ-tocopherol/kg maternal diet
# [16] = 250 mg γ-tocopherol/kg maternal diet, listed as γT
# [17] = 250 mg γ-tocopherol/kg maternal diet, allergic mothers
smiles,measurement,setting,value
"Cc1c(C)c2c(c(C)c1O)CC[C@@](C)(CCC[C@H](C)CCC[C@H](C)CCCC(C)C)O2 [D-α-tocopherol, D-α-Tocopherol]",percent eosinophils in the BAL,"[1]; 150 mg α-tocopherol/kg maternal diet, pups PND13",partially inhibited
same,percent eosinophils in the BAL,"[1]; 250 mg α-tocopherol/kg maternal diet, pups PND13",greatest inhibition
same,development of the allergic response in cross-fostered neonates,"[1]; 250 mg/kg diet during pregnancy only, pups cross-fostered to allergic mothers with basal diet",sufficient to inhibit
same,allergic responses in cross-fostered neonates,"[1]; 250 mg/kg diet supplementation during lactation only, cross-fostered",reduced
same,percent eosinophils in the BAL,"[1]; 500 mg α-tocopherol/kg maternal diet, pups PND13",greatest inhibition
same,inhibition of BAL eosinophils in the OVA-challenged pups,"[1]; 500 mg/kg diet started at second mating, second litter of allergic mothers",> 90%
same,OVA-specific serum IgE in pups,"[1]; among the D-α-tocopherol treatment groups, ELISA",not different
same,allergic inflammation in the OVA-stimulated pups from allergic mothers,"[1]; maternal diet 150, 250 or 500 mg/kg diet vs basal 45 mg/kg, pregnancy and lactation, PND13 BAL",dose-dependent inhibition
same,eosinophils in the lung tissue of OVA-challenged pups,"[1]; maternal supplementation of allergic female mice, eosin/methyl green histology",reduced
same,allergic responses in the lung (BAL eosinophils and monocytes),"[1]; maternal supplementation, PND13 pups of the liver tocopherol/DC experiment (FIG. 9D)",blocked
same,body weight,[1]; [10],did not affect
same,lung weight,[1]; [10],did not affect
same,pup gender distribution,[1]; maternal supplemented diets,no effect
same,pup numbers,[1]; maternal supplemented diets,no effect
same,pup weight,"[1]; maternal supplemented diets, pups PND13",no effect
same,OVA-induced pup lung mRNA expression of CCL11,[2]; [11],inhibited
same,OVA-induced pup lung mRNA expression of CCL24,[2]; [11],inhibited
same,OVA-induced pup lung mRNA expression of IL-4,[2]; [11],inhibited
same,OVA-induced pup lung mRNA expression of IL-33,[2]; [11],inhibited
same,protein expression of CCL24 in BAL supernatant,"[2]; maternal supplementation during pregnancy/lactation, PND13, ELISA",inhibited
same,whole lung expression of IFNγ,[2]; [12],no effect
same,whole lung expression of IL-2,[2]; [12],no effect
same,whole lung expression of IL-10,[2]; [12],no effect
same,whole lung expression of MHCII,[2]; [12],no effect
same,whole lung expression of TNF-α,[2]; [12],no effect
same,whole lung mRNA expression of CCL11,[2]; [12],reduced
same,whole lung mRNA expression of CCL24,[2]; [12],reduced
same,whole lung mRNA expression of IL-4,[2]; [12],reduced
same,whole lung mRNA expression of IL-33,[2]; [12],reduced
same,whole lung mRNA expression of TSLP,[2]; [12],reduced
same,lung tissue expression of IDO,"[2]; second litter, 500 mg/kg maternal diet, pups from allergic mothers and saline mothers",reduced
same,cell viability,[3]; 80 μM α-T,no effect
same,increase of pup liver D-α-tocopherol with maternal supplementation,[4]; PND13 pup liver,2.5 fold
same,"lung tissue number of CD11c+CD11b+ subsets of DCs, including resident conventional DCs, mDCs, and CD11b+ alveolar DCs",[5]; [13],significantly reduced
same,"pup lung CD11c+CD11b− subsets of cells, including pDCs, resident CD103+DCs, CD11b− alveolar DCs, and alveolar macrophages",[5]; [13],did not alter
same,"mean fluorescence intensity for MHCII, CD80, and CD86 on CD11c+CD11b+DCs and CD11c+CD11b−DCs","[5]; pup lung, among the groups (data not shown)",not different
same,pup lung pDC-to-cDC ratio,"[5]; supplementation of allergic mothers, OVA-challenged pups, 0.3 with basal diet",0.53
same,percent of viable cells in the culture,[6]; 8 days (data not shown),without affecting
same,number of CD45+CD11b+CD11+DCs,[6]; [14],reduced
same,number of cells with resident DC phenotype (CD45+CD11b+CD11c+Ly6c−MHCII−DCs),[6]; [14],reduced
same,fetal liver CD11c+CD11b− subsets,[7]; maternal supplementation (data not shown),not altered
same,"number of CD11c+CD11b+DCs in fetal livers, including phenotype of mDCs and of resident DCs",[7]; supplementation of allergic mothers,reduced
Cc1c(O)cc2c(c1C)O[C@](C)(CCC[C@H](C)CCC[C@H](C)CCCC(C)C)CC2 [γ-tocopherol],tissue γ-tocopherol in mothers,[8],elevates
same,tissue γ-tocopherol in pups,[8],elevates
same,number of BAL leukocytes in OVA-challenged pups from allergic mothers,[9]; [15],increases
same,number of pups from supplemented allergic mothers,[9]; [15],fewer pups
same,pup responses to allergen challenge,"[9]; 250 mg γ-tocopherol/kg maternal diet during pregnancy/lactation, allergic mothers",elevated
same,numbers of IRF4+CD11b+CD11c+ dendritic cells in pup lung,[9]; [15],increases
same,numbers of IRF4+CD11b+CD11c+ dendritic cells in pup lung,[9]; [16],elevated numbers
same,numbers of CD11b expressing subsets of CD11c dendritic cells in pup lung,[9]; [17],increased numbers
same,numbers of pup lung eosinophils,[9]; [17],increased numbers
same,number of allergic mothers with pups,"[9]; 250 mg γ-tocopherol/kg maternal diet, percentage of mated females that had pups",reduced
same,inflammatory mediators in OVA-treated pup lungs,[9]; [15],increases
same,inflammatory mediators in OVA-treated pup lungs,[9]; [16],increased
same,cell viability,[3]; 2 μM γ-T,no effect
same,liver γ-tocopherol,[4]; all groups of the D-α-tocopherol diet experiment (data not shown),< 0.003 μg γ-tocopherol/g liver tissue
